Experiment [1] has as its target T1, human recombinant serotonin (5-Hydroxytryptamine) 5-HT2C receptor (Homo sapiens, UniProt P28335).
T1 construct: expressed in transfected cells; host or cells: CHO-K1 cells
T1 sequence (P28335 33-458): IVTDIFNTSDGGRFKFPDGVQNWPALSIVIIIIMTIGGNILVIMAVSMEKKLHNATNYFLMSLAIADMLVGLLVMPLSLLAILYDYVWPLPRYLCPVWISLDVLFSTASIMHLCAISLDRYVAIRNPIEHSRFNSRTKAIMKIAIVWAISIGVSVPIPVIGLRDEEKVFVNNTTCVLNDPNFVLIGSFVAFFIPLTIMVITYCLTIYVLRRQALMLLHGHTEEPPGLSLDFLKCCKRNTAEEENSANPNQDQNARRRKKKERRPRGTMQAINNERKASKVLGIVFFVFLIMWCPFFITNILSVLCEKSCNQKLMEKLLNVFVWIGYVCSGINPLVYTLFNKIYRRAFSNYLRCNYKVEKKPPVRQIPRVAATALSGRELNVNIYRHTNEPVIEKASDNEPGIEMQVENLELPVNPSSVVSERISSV
Briefly: Serotonin 5-HT2C radioligand binding ([3H]Mesulergine). The method, then: Compounds of the invention were incubated with 1 nM [^3H]Mesulergine for 60 minutes at 25° C. Non-specific binding was estimated in the presence of 1 μM Mianserin. Receptor proteins were filtered and washed, the filters were then counted to determine [^3H]Mesulergine specifically bound. […] Biochemical assay results are presented as the percent inhibition of specific binding in Table 5.

The target of experiment [2] is T2, human recombinant adrenergic α1D receptor (Homo sapiens, UniProt P25100).
T2 construct: expressed in transfected cells; host or cells: HEK-293 cells
T2 sequence (P25100 1-572): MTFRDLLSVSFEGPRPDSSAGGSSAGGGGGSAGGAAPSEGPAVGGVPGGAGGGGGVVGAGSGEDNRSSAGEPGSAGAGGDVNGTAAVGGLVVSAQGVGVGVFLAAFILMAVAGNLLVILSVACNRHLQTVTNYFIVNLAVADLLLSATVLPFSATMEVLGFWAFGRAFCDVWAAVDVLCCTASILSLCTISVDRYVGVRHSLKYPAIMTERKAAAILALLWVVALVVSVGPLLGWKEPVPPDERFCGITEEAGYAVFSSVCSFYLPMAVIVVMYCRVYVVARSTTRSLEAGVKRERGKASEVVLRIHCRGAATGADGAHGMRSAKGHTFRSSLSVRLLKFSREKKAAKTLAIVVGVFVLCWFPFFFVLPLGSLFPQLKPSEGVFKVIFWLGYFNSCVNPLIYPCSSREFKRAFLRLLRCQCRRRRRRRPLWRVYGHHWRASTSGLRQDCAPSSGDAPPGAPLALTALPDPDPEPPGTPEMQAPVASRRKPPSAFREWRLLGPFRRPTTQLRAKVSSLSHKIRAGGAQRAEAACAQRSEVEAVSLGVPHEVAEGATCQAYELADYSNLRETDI
Briefly: Adrenergic α1D radioligand binding ([3H]Prozosin). Here is the method: To evaluate in radioligand binding assays the activity of compounds of the invention, human recombinant adrenergic a1D receptor expressed in human embryonic kidney (HEK-293) cells (Kenny, B. A. et al. Br. J. Pharmacol. 115(6):981, 1995) in a 50 mM Tris-HCl buffer, pH 7.4, was used. Compounds of invention were incubated with 0.6 nM [^3H]Prozosin for 60 minutes at 25° C. Non-specific binding was estimated in the presence of 10 μM phentolamine. Receptor proteins were filtered and washed, the filters were then counted to determine [^3H]Prozosin specifically bound. Compounds were screened at 1 μM or lower, using 1% DMSO as vehicle. Biochemical assay results are presented as the percent inhibition of specific binding in Table 4. Adrenergic a2A

In experiment [3] the target is T3, human recombinant adrenergic α2A receptor (Homo sapiens, UniProt P08913).
T3 construct: expressed in transfected cells; host or cells: insect Sf9 cells
T3 sequence (P08913 1-465): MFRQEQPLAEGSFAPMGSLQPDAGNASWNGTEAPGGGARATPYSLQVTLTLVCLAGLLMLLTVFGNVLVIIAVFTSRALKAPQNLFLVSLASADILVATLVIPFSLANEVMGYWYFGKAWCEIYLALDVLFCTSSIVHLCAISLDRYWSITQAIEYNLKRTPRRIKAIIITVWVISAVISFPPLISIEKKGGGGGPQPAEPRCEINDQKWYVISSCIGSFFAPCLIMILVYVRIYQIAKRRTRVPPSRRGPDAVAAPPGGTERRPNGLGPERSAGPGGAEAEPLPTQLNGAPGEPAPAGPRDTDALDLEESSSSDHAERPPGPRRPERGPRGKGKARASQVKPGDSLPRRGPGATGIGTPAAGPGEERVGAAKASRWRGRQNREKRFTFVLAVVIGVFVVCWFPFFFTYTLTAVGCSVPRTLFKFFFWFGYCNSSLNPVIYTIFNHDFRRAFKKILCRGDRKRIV
In words: Adrenergic α2A radioligand binding ([3H]MK-912). The method, then:
To evaluate in radioligand binding assays the activity of compounds of the invention, human recombinant adrenergic α2A receptor expressed in insect Sf9 cells (Uhlen S et al. J Pharmacol Exp Ther. 271:1558, 1994) in a modified Tris-HCl buffer (50 mM Tris-HCl, pH 7.4, 12.5 mM MgCl2, 2 mM EDTA) was used. Compounds of invention were incubated with 1 nM [^3H]MK-912 for 60 minutes at 25° C. MK912 is (2S-trans)-1,3,4,5′,6,6′,7,12b-octahydro-1′,3′-dimethyl-spiro[2H-benzofuro[2,3-a]quinolizine-2,4′(1′H)-pyrimidin]-2′(3′H)-one hydrochloride Non-specific binding was estimated in the presence of 10 μM WB-4101 (2-(2,6-Dimethoxyphenoxyethyl)aminomethyl-1,4-benzodioxane hydrochloride). Receptor proteins were filtered and washed, the filters were then counted to determine [^3H]MK-912 specifically bound. Compounds were screened at 1 μM or lower, using 1% DMSO as vehicle. Biochemical assay results are presented as the percent inhibition of specific binding in Table 4.

Where [4] appears, read: 1 h, read-out: Percent Inhibition of ligand binding Serotonin (1 μM ligand concentration) 5-HT2C.
Setting [5] is: compound concentration 1 μM, read-out: Percentage inhibition of ligand binding to 5-HT2C receptor.
The mark [6] stands for this setting: 1 h, read-out: Percent Inhibition of ligand binding Adrenergic (1 μM ligand conc.) α1D.
Where [7] appears, read: compound concentration 1 μM, read-out: Percentage inhibition of ligand binding to Adrenergic α1D receptor.
The mark [8] stands for this setting: 1 h, read-out: Percent Inhibition of ligand binding Adrenergic (1 μM ligand conc.) α2A.
[9] abbreviates: compound concentration 1 μM, read-out: Percentage inhibition of ligand binding to Adrenergic α2A receptor.

Where two headings read alike, the source gives them in different places.

In the case of `C/C(=C\n1c2c(c3cc(C)ccc31)CCN(C)C2)c1ccc(F)cc1` [Compound 91, (E)-9-(2-(4-fluorophenyl)prop-1-enyl)-2,6-dimethyl-2,3,4,9-tetrahydro-1H-pyrido[3,4-b]indole], the inhibition at 1 µM was 104% in experiment [1] (setting [4]); 104% in experiment [1] (setting [5]); 73% in experiment [2] (setting [6]); 73% in experiment [2] (setting [7]); 95% in experiment [3] (setting [8]); 95% in experiment [3] (setting [9]). In experiment [1] (compound concentration 3 nM, read-out: Percentage inhibition of ligand binding to 5-HT2C receptor), the inhibition at 0.003 µM turned out to be 22%. In addition, in experiment [1] (compound concentration 10 nM, read-out: Percentage inhibition of ligand binding to 5-HT2C receptor), the inhibition at 0.01 µM was 58%. Besides, the inhibition at 0.03 µM in experiment [1] (compound concentration 0.03 μM, read-out: Percentage inhibition of ligand binding to 5-HT2C receptor) was found to be 77%. Besides, the inhibition at 0.1 µM in experiment [1] (compound concentration 0.1 μM, read-out: Percentage inhibition of ligand binding to 5-HT2C receptor) stood at 87%. The inhibition at 0.3 µM in experiment [1] (compound concentration 0.3 μM, read-out: Percentage inhibition of ligand binding to 5-HT2C receptor) is 93%.
In the case of `Cc1ccc2c(c1)c1c(n2CCc2ccc(C(F)(F)F)nc2)CN(C)CC1` [Compound 5, 9-(2-(6-(trifluoromethyl)pyridin-3-yl)ethyl)-2,3,4,9-tetrahydro-2,6-dimethyl-1H-pyrido[3,4-b]indole], the inhibition at 1 µM in experiment [1] (setting [4]) turned out to be 39%; in experiment [2] (setting [6]), 64%; in experiment [3] (setting [8]) it was 74%.
Take `CC1c2c(c3cc(Cl)ccc3n2C#Cc2ccc(F)cc2)CCN1C` (centres unmarked) [Compound 128]: the inhibition at 1 µM in experiment [1] (setting [4]) is 101%; in experiment [2] (setting [6]) it was 25%; in experiment [3] (setting [8]), 81%.
Consider `Cc1ccc2c(c1)c1c(n2/C=C/c2ccccc2)CN(C)CC1` [Compound 92], for which the inhibition at 1 µM in experiment [1] (setting [4]) was 96%; in experiment [1] (setting [5]), 96%; in experiment [2] (setting [6]), 97%; in experiment [2] (setting [7]), 97%; in experiment [3] (setting [8]), 96%; in experiment [3] (setting [9]), 96%.
In the case of `Cc1ccc2c(c1)c1c(n2CC(O)c2ccccc2)CN(C)CC1` (centres unmarked) [Compound 67], the inhibition at 1 µM in experiment [1] (setting [4]), in experiment [2] (setting [6]) and in experiment [3] (setting [8]) was 85% in each case.
Turning to `Cc1ccc(CCCn2c3c(c4cc(Cl)ccc42)CCN(C)C3)cn1` [Compound 56, 6-chloro-2-methyl-9-(3-(6-methylpyridin-3-yl)propyl)-2,3,4,9-tetrahydro-1H-pyrido[3,4-b]indole], the inhibition at 1 µM is -3% in experiment [1] (setting [4]), 16% in experiment [2] (setting [6]) and 7% in experiment [3] (setting [8]).
Take `C#CCn1c2c(c3cc(Cl)ccc31)CCN(C)C2` [Compound 125, 6-chloro-2,3,4,9-tetrahydro-2-methyl-9-(prop-2-yn1)-1H-pyrido[3,4-b]indole]: the “Percent Inhibition of ligand binding Serotonin (1 μM ligand concentration) 5-HT2C” value in experiment [1] (1 μM ligand concentration) is recorded as 74%. Further, the results for the inhibition at 1 µM in experiment [2] (setting [6]) and in experiment [3] (setting [8]) were 93% and 89%, respectively.
Regarding `CN1CCc2c(n(CC(=O)N(C)C3CCCCC3)c3ccc(Cl)cc23)C1` [Compound 18, 2-(6-chloro-1,2,3,4-tetrahydro-2-methylpyrido[3,4-b]indol-9-yl)-N-cyclohexyl-N-methylacetamide], the inhibition at 1 µM is 3% in experiment [1] (setting [4]), 21% in experiment [2] (setting [6]) and 4% in experiment [3] (setting [8]).
Taken in the same sequence, the figures for `Cc1ccc2c(c1)c1c(n2C(=O)Cc2ccc(Cl)cc2)C(c2ccccc2)N(C)CC1` (centres unmarked) [Compound 163] were 96%, 78% and 96%.
With `Cc1ccc2c(c1)c1c(n2CC(=O)O)CN(C)CC1` [Compound 53, 2-(1,2,3,4-tetrahydro-2,6-dimethylpyrido[3,4-b]indol-9-yl)acetic acid], the results for the inhibition at 1 µM in experiment [1] (setting [4]), in experiment [2] (setting [6]) and in experiment [3] (setting [8]) were -3%, 6% and 5%, respectively.
For `CN1CCc2c(n(CC(=O)N3CCCC3)c3ccc(Cl)cc23)C1` [Compound 40, 2-(6-chloro-1,2,3,4-tetrahydro-2-methylpyrido[3,4-b]indol-9-yl)-1-(pyrrolidin-1-yl)ethanone], the values for the inhibition at 1 µM in experiment [1] (setting [4]), in experiment [2] (setting [6]) and in experiment [3] (setting [8]) were 12%, 3% and 1%, respectively.
Consider `CC(C)CCN(C)C(=O)Cn1c2c(c3cc(Cl)ccc31)CCN(C)C2` [Compound 14, 2-(6-chloro-1,2,3,4-tetrahydro-2-methylpyrido[3,4-b]indol-9-yl)-N-isopentyl-N-methylacetamide], for which the inhibition at 1 µM in experiment [1] (setting [4]) worked out at 20%; in experiment [2] (setting [6]), 33%; in experiment [3] (setting [8]), 19%.
In the case of `CCC1c2c(c3cc(Cl)ccc3n2CCc2ccc(F)cc2)CCN1C` (centres unmarked) [Compound 78], the inhibition at 1 µM was 101% in experiment [1] (setting [4]), 42% in experiment [2] (setting [6]) and 93% in experiment [3] (setting [8]).
In the case of `CN1CCc2c(n(CCCc3ccccc3)c3ccc(Cl)cc23)C1` [Compound 29, 6-chloro-2,3,4,9-tetrahydro-2-methyl-9-(3-phenylpropyl)-1H-pyrido[3,4-b]indole], the values for the inhibition at 1 µM in experiment [1] (setting [4]), in experiment [2] (setting [6]) and in experiment [3] (setting [8]) were 90%, 84% and 96%, respectively.
Consider `CCC1c2c(c3cc(Cl)ccc3n2/C=C(\C)c2ccc(Cl)cc2)CCN1C` (centres unmarked) [Compound 100, 6-chloro-9-(2-(4-chlorophenyl)prop-1-enyl)-1-ethyl-2-methyl-2,3,4,9-tetrahydro-1H-pyrido[3,4-b]indole], for which the figures for the inhibition at 1 µM in experiment [1] (setting [4]), in experiment [2] (setting [6]) and in experiment [3] (setting [8]) were 98%, 8% and 56%, respectively.
For `CC1c2c(c3cc(Cl)ccc3n2C#Cc2ccc(Cl)cc2)CCN1C` (centres unmarked) [Compound 132, 6-chloro-9-((4-chlorophenyl)ethynyl)-1,2-dimethyl-2,3,4,9-tetrahydro-1H-pyrido[3,4-b]indole], the values for the inhibition at 1 µM in experiment [1] (setting [4]), in experiment [2] (setting [6]) and in experiment [3] (setting [8]) were 94%, -8% and 13%, respectively.
